Measured values as given in patent US6784175B2, “Use of substituted 1-amino-5-phenylpentane-3-ol and/or 1-amino-6-phenylhexane-3-ol compounds as medicaments” (Gruenenthal GmbH, priority 2000, dated 2004).
Where a name gives a salt, the structure may show the parent alone.

Test system: (+)-MK801 binding site of the ionotropic NMDA receptor
Test: (3H)-(+)-MK801 receptor bonding test on rat cerebral membrane homogenates
Conditions: 1 nmol/l (3H)-(+)-MK801, rat brain membrane homogenate; for Percentage inhibition of (3H)-(+)-MK801 binding at 10 μM: 10 μmol/l compound, triple determinations; for Ki: calculated from IC50 by Cheng-Prusoff equation
Protocol: Research to determine the NMDA antagonistic effect of each compound in general formula I was carried out on cerebral membrane homogenates (homogenate of rat brain without cerebellum, pons and medulla oblongata taken from male Wistar rats (Charles River, Sulzfeld, Germany)).
For this purpose, after separating the cerebellum, pons and medulla oblongata, freshly prepared rat brains were macerated in 50 mmol/l of tris/HCl (pH 7.7) with a Polytron homogeniser (model PT3000, Kinematika AG, Littau, Switzerland) at 6000 revolutions per minute (rpm) for 1 minute with ice cooling and centrifuged for 15 minutes at 4° C. and 60,000 g. After decanting and discarding the supernatant, again placing in 50 mmol/l of tris/HCl (pH 7.7) and macerating the membrane pellet with a homogeniser at 2000 rpm for 1 minute, it was centrifuged again for 15 minutes at 4° C. and 60,000 g. The supernatant was again discarding and the membrane pellet homogenised (2000 rpm for 1 minute) in 50 mmol/l of tris/HCl (pH 7.7) and frozen in aliquots at −70° C.
For the receptor bonding test, each aliquot was defrosted and then centrifuged for 15 minutes at 4° C. and 60,000 g. After decanting and discarding the supernatant, the membrane pellet was taken up with bonding test buffer and homogenised (2000 rpm for 1 minute). The bonding test buffer was 5 mmol/l tris/HCl (pH 7.7) supplemented with 30 μmol/l of glycine and 100 μmol/l of glutamic acid.
1 nmol/l of (^3H)-(+)-MK801 ((5R, 10S)-(+)-5-methyl-10,11-dihydro-5H-dibenzo(a,d)cycloheptane-5,10-imine was used as a radioactively marked ligand (NET-972, NEN, Cologne Germany). The proportion of unspecific bonding was determined in the presence of 10 μmol/l of non-radioactively marked (+)-MK801 (RBI/Sigma, Deisenhofen, Germany). In further batches, each of the compounds of general formula I were added in series of concentrations and the displacement of the radioactive ligand out of its specific bond to the NMDA receptor determined. All the batches were subjected to triple determinations. The batches were each incubated for 40 minutes at 25° C. in a water bath and then harvested for determination of the radioactive ligand bound to the cerebral membrane homogenate by means of filtration through glass-fibre filters (GF/B) (Whatman GF/B, Hassel, Munich, Germany). The radioactivity retained by the glass-fibre filter discs was measured in a β counter (Packard TRI-CARB Liquid Scintillation Analyser 2000CA, Packard Instrument, Meriden, Conn. 06450, USA) after adding a scintillator (“Ready Protein” scintillator, Beckmann Coulter GmhH, Krefeld, Germany).
The percentage inhibition of the specific bonding of the ligand (^3H)-(+)-MK801 in the presence of 10 μmol/l of each compound of general formula I resulting from the triple batches is used as a measure of the affinity of the compound for the (+)-MK801 binding site of the ionotropic NMDA receptor. From batches with concentration series of these compounds of general formula I, the IC50 values (concentration of substituted compounds with 50% displacement of radioactive ligand out of its specific bond) were calculated in accordance with the law of mass action using non-linear regression. From these IC50 values, the Kj values were calculated in accordance with the Cheng-Prusoff equation (Y. Cheng, W. H. Prusoff, 1973, Biochem. Pharmacol., 22, pp 3099-3108).

Structure (SMILES) | Percentage inhibition of (3H)-(+)-MK801 binding at 10 μM (hydrochloride, 10 µM) [%] | Ki (hydrochloride) [nM] | Percentage inhibition of (3H)-(+)-MK801 binding at 10 μM [%] | Ki [nM]
CN(C)C(c1ccccc1)C1CCCCC1(O)CCCc1ccccc1.Cl (single isomer, unassigned; (-)) [Example 50, (−)-2-(dimethylaminophenylmethyl)1-(3-phenylpropyl)cyclohexanol, hydrochloride] | 87 | 600 |  | 
CN(C)C(c1ccccc1F)C1CCCCC1(O)CCc1cccc(Cl)c1.Cl (centres unmarked) [Example 21, 1-[2-(3-chlorophenyl)ethyl]-2-(dimethylamino-(2-fluorophenyl)methyl]cyclohexanol, hydrochloride] |  |  | 90 | 2100
CN(C)C(c1ccccc1F)C1CCCCC1(O)CCc1ccccc1F.Cl (centres unmarked) [Example 29, 2-[dimethylamino-(2-fluorophenyl)methyl]-1-[2-(2-fluorophenyl)ethyl]cyclohexanol, hydrochloride] |  |  | 104 | 300
Cc1ccccc1CCC1(O)CCCCC1C(c1ccccc1Cl)N(C)C.Cl (centres unmarked) [Example 35, 2-[(2-chlorophenyl)dimethylaminomethyl]-1-(2-o-tolylethyl)cyclohexanol, hydrochloride] |  |  | 93 | 1800
COc1ccccc1C(C1CCCCC1(O)CCc1ccccc1F)N(C)C.Cl (centres unmarked) [Example 28, 2-[dimethylamino-(2-methoxyphenyl)methyl]-1-[2-(2-fluorophenyl)ethyl]cyclohexanol, hydrochloride] |  |  | 82 | 2500
CN(C)C(c1ccccc1)C1CCCCC1(O)CCCc1ccccc1.Cl (single isomer, unassigned; (+)) [Example 51, (+)-2-(dimethylaminophenylmethyl)-1-(3-phenylpropyl)cyclohexanol, hydrochloride] | 80 | 2300 |  | 
Cc1cccc(C(C2CCCCC2(O)CCc2ccccc2Cl)N(C)C)c1.Cl (centres unmarked) [Example 20, 1-[2-(2-chlorophenyl)ethyl]-2-(dimethylamino-m-tolylmethyl)cyclohexanol, hydrochloride] |  |  | 62 | 4300
CN(C)C(c1ccccc1Cl)C1CCCCC1(O)CCc1ccccc1Cl.Cl (centres unmarked) [Example 33, 2-[(2-chlorophenyl)dimethylaminomethyl]-1-[2-(2-chlorophenyl)ethyl]cyclohexanol, hydrochloride] |  |  | 93 | 600
Cc1ccccc1C(C1CCCCC1(O)CCc1ccccc1Cl)N(C)C (single isomer, unassigned; (-)) [Example 48, (−)-15-1-[2-(2-chlorophenyl)ethyl]-2-(dimethylamino-o-tolylmethylcyclohexanol), hydrochloride] | 99 | 400 |  | 
CN(C)C(c1ccccc1Cl)C1CCCCC1(O)CCc1ccccc1F.Cl (single isomer, unassigned; (+)) [Example 53, (+)-2-[(2-chlorophenyl)dimethylaminomethyl]-1-[2-(2-fluorophenyl)ethyl]cyclohexanol, hydrochloride] | 104 | 500 |  | 
Cc1ccccc1C(C1CCCCC1(O)CCc1ccccc1Cl)N(C)C (single isomer, unassigned; (+)) [Example 49, (+)-15-1-[2-(2-chlorophenyl)ethyl]-2-(dimethylamino-o-tolylmethylcyclohexanol), hydrochloride] | 93 | 1300 |  | 
CN(C)C(c1ccccc1F)C1CCCCC1(O)CCCc1ccccc1.Cl (centres unmarked) [Example 44, 2-[dimethylamino-(2-fluorophenyl)methyl]-1-(3-phenylpropyl)cyclohexanol, hydrochloride] |  |  | 91 | 1400
CN(C)C(c1ccccc1C(F)(F)F)C1CCCCC1(O)CCc1ccccc1Cl.Cl (centres unmarked) [Example 46, 1-[2-(2-chlorophenyl)ethyl]-2-[dimethylamino-(2-trifluoromethylphenyl)methyl]cyclohexanol, hydrochloride] |  |  | 79 | 1900
CN(C)C(c1ccc(F)cc1Cl)C1CCCCC1(O)CCc1ccccc1Cl.Cl (centres unmarked) [Example 42, 2-[(2-chloro4-fluorophenyl)dimethylaminomethyl]-1-[2-(2-chlorophenyl)ethyl]cyclohexanol, hydrochloride] |  |  | 85 | 2000
CN(C)C(c1cccc(F)c1)C1CCCCC1(O)CCc1ccccc1Cl.Cl (centres unmarked) [Example 22, 1-[2-(2-chlorophenyl)ethyl]-2-(dimethylamino-(3-fluorophenyl)methyl]cyclohexanol, hydrochloride] |  |  | 74 | 3000
Cc1ccccc1C(C1CCCCC1(O)CCCc1ccccc1)N(C)C.Cl (centres unmarked) [Example 45, 2-(dimethylamino-o-tolylmethyl)1-(3-phenylpropyl)cyclohexanol, hydrochloride] |  |  | 91 | 1800
Cc1ccccc1CCC1(O)CCCCC1C(c1ccccc1F)N(C)C.Cl (centres unmarked) [Example 43, 2-[dimethylamino-(2-fluorophenyl)methyl]-1-(2-o-tolylethyl)cyclohexanol, hydrochloride] |  |  | 92 | 1400
CN(C)C(c1ccccc1Br)C1CCCCC1(O)CCc1ccccc1F.Cl (centres unmarked) [Example 34, 2-[(2-bromophenyl)dimethylaminomethyl]-1-[2-(2-fluorophenyl)ethyl]cyclohexanol, hydrochloride] |  |  | 95 | 400
CN(C)C(c1ccccc1Cl)C1CCCCC1(O)CCCc1ccccc1.Cl (centres unmarked) [Example 36, 2-[(2-chlorophenyl)dimethylaminomethyl]-1-(3-phenylpropyl)cyclohexanol, hydrochloride] |  |  | 85 | 1900
Cc1ccccc1CCC1(O)CCCCC1C(c1ccccc1Br)N(C)C.Cl (centres unmarked) [Example 38, 2-[(2-bromophenyl)dimethylaminomethyl]-1-(2-o-tolylethyl)cyclohexanol, hydrochloride] |  |  | 93 | 2300
CN(C)C(c1ccccc1Cl)C1CCCCC1(O)CCc1ccccc1F.Cl (single isomer, unassigned; (-)) [Example 52, (−)-2-[(2-chlorophenyl)dimethylaminomethyl]-1-[2-(2-fluorophenyl)ethyl]cyclohexanol, hydrochloride] | 105 | 200 |  | 
CN(C)C(c1ccc(F)cc1Cl)C1CCCCC1(O)CCc1ccccc1F.Cl (centres unmarked) [Example 41, 2-[(2-chloro4-fluorophenyl)dimethylaminomethyl]-1-[2-(2-fluorophenyl)ethyl]cyclohexanol, hydrochloride] |  |  | 94 | 1200
Cc1ccccc1C(C1CCCCC1(O)CCc1cccc(Cl)c1)N(C)C.Cl (centres unmarked) [Example 26, 1-[2-(3-chlorophenyl)ethyl]-2-(dimethylamino-o-tolylmethyl)cyclohexanol, hydrochloride] | 89 | 1300 |  | 
CN(C)C(c1ccccc1C(F)(F)F)C1CCCCC1(O)CCc1ccccc1F.Cl (centres unmarked) [Example 47, 2-[dimethylamino-(2-trifluoromethylphenyl)methyl]-1-[2-(2-fluorophenyl)ethyl]cyclohexanol, hydrochloride] |  |  | 90 | 1400
CN(C)C(c1ccccc1Br)C1CCCCC1(O)CCc1ccccc1Cl.Cl (centres unmarked) [Example 32, 2-[(2-bromophenyl)dimethylaminomethyl]-1-[2-(2-chlorophenyl)ethyl]cyclohexanol, hydrochloride] |  |  | 96 | 700
